Experimental data as given in patent publication US20260294836A1, “REMOTE CONTROL AND QUANTITATIVE MONITORING OF DRUG RELEASE FROM NANOPARTICLES BASED ON MAGNETIC PARTICLE IMAGING” (Board of Trustees of Michigan State University, priority 2022, published 2026).

Legend:
Type in all cases: in vivo, Balb/c mice
4T1 tumor [1] = experiment: Short-term tumor inhibition (BLI, tumor size, 15 days); details: DOX alone
Method: (§1) The 4T1 tumor-bearing Balb/c mice may be randomly divided into six groups. In at least one example embodiment, each group may include three mice. In at least one example embodiment, a first group may receive PLGA. In at least one example embodiment, a second group may receive SPNCD. In at least one example embodiment, a third group may receive SPNCD and may be irradiated with NIR for 1 minute. In at least one example embodiment, a fourth group may receive SPNCD and may be irradiated with NIR for 7 minutes. In at least one example embodiment, a fifth group may receive SPNC and may be irradiated with NIR for 1 minute. In at least one example embodiment, a sixth group may receive DOX.
(§2) Once tumor volumes reach or become greater than 100 mm^3, the mice may be intratumorally injected with the various conditions (e.g., PLGA in the instance of the first group, SPNCD in the instance of the second group, SPNCD+NIR-1 minute in the instance of the third group, SPNCD+NIR-7 minute in the instances of the fourth group, SPNC+NIR-1 minute in the instance of the fifth group, and DOX in the instance of the sixth group) every 2 days for 15 days. Tumor size and mouse body weight may be measured every 2 days for 15 days in total. […]

4T1 tumor [2] = experiment: Apoptosis in tumors (flow cytometry and TUNNEL assay); details: no NIR
Method: as §1, §2

4T1 tumor [3] = experiment: Long-term tumor inhibition and metastasis, 4T1 tumor mice; details: DOX alone; PBS 30 days
Method: The 4T1 cells may be implanted into the mammary fat pads of six-week-old female Balb/c mice. In at least one example embodiment, about 1×10^6 cells may be implanted per mouse.
4T1 tumor-bearing Balb/c mice and BT549 tumor-bearing Nude mice ay be randomly divided into three groups. In at least one example embodiment, each group may include eight mice (PBS, SPNCD+NIR 7 min, DOX). Once tumor volumes reach or become greater than 100 mm^3, 4T1 tumor-bearing mice (DOX: 0.122 mg/kg) and BT549 tumor-bearing mice (DOX: 1.5 mg/kg) may be intratumorally injected with agents from the various conditions every 2 days for 15 days followed by NIR irradiation (808 nm, 1W). In at least one example embodiment, the DOX dose may be determined based on the IC50 of each cell line. Tumor size and mouse weight may be measured every 3 days for 80 days in total. Bioluminescence imaging (e.g., PerkinElmer, USA) may be conducted every 3 days by intraperitoneally injected D luciferin (e.g., 150 mg/kg) into 4T1 tumor-bearing Balb/c mice to observe the metastasis of 4T1 tumor-bearing Balb/c mice.
Tumor growth, mouse bodyweight, and tumor metastasis may be monitored for 80 days in 4T1 DOX-sensitive and BT459 DOX-resistant tumor mice. The mice may be randomly divided into four groups. In at least one example embodiment, each group may include five mice. […]

F4/80-positive TAM = experiment: F4/80 immunostaining of tumor sections (TAM accumulation); details: without NIR
Method: as §1, §2

With `COc1cccc2c1C(=O)c1c(O)c3c(c(O)c1C2=O)C[C@@](O)(C(=O)CO)C[C@@H]3O[C@H]1C[C@H](N)[C@H](O)[C@H](C)O1` [DOX, doxorubicin] the tumor size (4T1 tumor [1]) was “did not increase in size”, the apoptosis in tumor (4T1 tumor [2]) was “induced significant apoptosis” and the time-to-tumor metastasis (4T1 tumor [3]) was 60 days post injection. The “F4/80-positive TAM accumulation versus PLGA treated groups” value (F4/80-positive TAM) was “increased more”.
